# Assay results reported in ChEMBL document CHEMBL1152569, “Synthesis, structure-affinity relationships, and modeling of AMDA analogs at 5-HT2A and H1 receptors: structural factors contributing to selectivity” (Bioorg Med Chem, 2009).
# pKi: −log10 of the molar value.
# Key:
# [1] = target: 5-hydroxytryptamine receptor 2A (Homo sapiens, UniProt P28223); experiment: Displacement of [3H]ketanserin from human 5HT2A receptor expressed in cells; type: cell-based
# Histamine H1 receptor = Histamine H1 receptor (Homo sapiens, UniProt P35367); experiment: Displacement of [3H]chlorphniramine from human histamine H1 receptor expressed in cells; type: cell-based
# Sequence of Histamine H1 receptor (P35367 whole entry): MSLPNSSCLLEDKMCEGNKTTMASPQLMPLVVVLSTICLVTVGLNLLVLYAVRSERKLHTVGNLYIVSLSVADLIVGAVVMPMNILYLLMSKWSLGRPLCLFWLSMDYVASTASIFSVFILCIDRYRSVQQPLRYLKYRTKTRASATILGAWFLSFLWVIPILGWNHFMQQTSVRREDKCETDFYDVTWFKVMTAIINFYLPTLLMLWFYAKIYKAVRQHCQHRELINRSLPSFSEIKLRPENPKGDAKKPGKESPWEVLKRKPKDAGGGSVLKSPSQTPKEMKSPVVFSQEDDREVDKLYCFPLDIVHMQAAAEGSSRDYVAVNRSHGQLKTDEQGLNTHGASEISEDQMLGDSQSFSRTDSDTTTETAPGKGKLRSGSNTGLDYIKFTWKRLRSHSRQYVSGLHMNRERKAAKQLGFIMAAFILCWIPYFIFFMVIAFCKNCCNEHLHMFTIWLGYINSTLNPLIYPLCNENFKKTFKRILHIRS
# Sequence of 5-hydroxytryptamine receptor 2A (P28223 whole entry): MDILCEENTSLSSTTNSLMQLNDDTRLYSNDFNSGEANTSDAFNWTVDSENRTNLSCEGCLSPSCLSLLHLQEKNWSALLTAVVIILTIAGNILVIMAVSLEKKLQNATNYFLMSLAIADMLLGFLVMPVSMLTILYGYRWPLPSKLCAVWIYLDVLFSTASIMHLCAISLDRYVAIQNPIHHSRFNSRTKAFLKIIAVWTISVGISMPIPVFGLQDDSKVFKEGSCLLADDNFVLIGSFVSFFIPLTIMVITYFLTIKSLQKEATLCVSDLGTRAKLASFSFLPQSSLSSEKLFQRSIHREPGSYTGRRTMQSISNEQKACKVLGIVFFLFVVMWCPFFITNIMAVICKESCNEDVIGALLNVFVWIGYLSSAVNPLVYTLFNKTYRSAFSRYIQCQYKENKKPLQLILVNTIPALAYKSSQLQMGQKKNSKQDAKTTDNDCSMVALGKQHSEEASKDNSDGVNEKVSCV
pKi (Histamine H1 receptor),Structure (SMILES),pKi [1]
< 5.00,NCC(c1ccccc1)c1ccccc1,
< 5.00,CNCC(c1ccccc1)c1ccccc1,< 5.00
6.86,NCCC1c2ccccc2Cc2ccccc21,
7.60,CN(C)CC1c2ccccc2Cc2ccccc21,
9.30,CN(C)CCCC1c2ccccc2Cc2ccccc21,
8.52,CNCCCC1c2ccccc2Cc2ccccc21,
5.78,NCCCC(c1ccccc1)c1ccccc1,5.59
6.41,CNCCCC(c1ccccc1)c1ccccc1,6.12
5.56,NCCC(c1ccccc1)c1ccccc1,< 5.00
6.72,CNCC1c2ccccc2Cc2ccccc21,

Structure (SMILES),pKi (Histamine H1 receptor),pKi [1]
CN(C)CC(c1ccccc1)c1ccccc1,5.29,5.13
NCCCC1c2ccccc2Cc2ccccc21,6.76,
NCC1c2ccccc2Cc2ccccc21,6.71,
CNCCC(c1ccccc1)c1ccccc1,7.19,5.82
CN(C)CCC1c2ccccc2Cc2ccccc21,8.22,7.08
CNCCC1c2ccccc2Cc2ccccc21,7.32,7.04
CN(C)CCCC(c1ccccc1)c1ccccc1,7.15,5.94
CN(C)CCC(c1ccccc1)c1ccccc1,7.12,5.79
